Measured values reported in patent publication US20180074045A1, “SYSTEM AND METHOD FOR HIGH THROUGHPUT SCREENING OF CANCER CELLS” (CANNABICS PHARMACEUTICALS INC, priority 2015, published 2018).

System: U87MG glioblastoma cells
Test: Cell viability imaging, extracts with various THC to CBD ratios
Assay type: cell-based, human
Conditions: extracts with various THC to CBD ratio, adjusted to 5 μM THC, 24 hours, 96-well; FIG. 6
Description: Cells were harvested three days before exposure and seeded (about 50,000-200,000 cells/well) into a 24-well microplate. The medium was replaced in respective culture medium containing 0.5% FBS, and vehicle (DMSO) or cannabis extracts (1-10 μg/ml) were added to the medium for 24-48 hours in duplicates.
The effect of cannabinoid compounds on cell viability was measured using high-content screening analysis. For example, differentiation of subpopulations of cells within the same well was analysed by distinguishing: live versus necrotic cells, early apoptotic cells and late apoptotic cells.
Cells were imaged in ImageXpress micro (see FIG. 2), and analyzed using MetaXpress and the Cell Cycle module.
Reference is now made to FIG. 6 showing images of glioblastoma cell lines treated with selected cannabis extracts comprising various THC to CBD ratio. In this study, 10,000 U87MG glioblastoma cells were plated into a 96-well microplate and treated with vehicle (DMSO) or cannabis extracts. It is noted that the extracts were delectated to reach 5 μM THC. Cells were imaged after 24 hours using the ImageXpress micro.

## C=C(C)[C@@H]1CCC(C)=C[C@H]1c1c(O)cc(CCCCC)cc1O [CBD, cannabidiol]
  U87MG glioblastoma cells viability: plays a role in reducing U87MG glioblastoma cells viability
